Each structure is given as a SMILES string. Calls of active or inactive are those of the source.

By IC50 is commonly meant the concentration at which inhibition is half-maximal. A word on the EC50: it is the concentration needed to bring the measured effect to its halfway point. One may read the AC50 as the concentration at which the activity in the assay is half-maximal. Usually CC50 stands for the concentration that lowers cell viability or growth by half.

Assay [1] has as its target DNA dC->dU-editing enzyme APOBEC-3A (Homo sapiens, UniProt P31941). In words: A3A deaminase inhibition for selectivity – biochemical, dose response (AID 504722). It counts as functional.
In assay [2] the target is Glucose-6-phosphate 1-dehydrogenase (Homo sapiens, UniProt P11413). In words: inhibition of Homo sapiens G6PD, dose series – biochemical, fluorescence, selectivity assay for P. falciparum G6PD inhibitor project, dose response (AID 504792). It counts as functional.
Another assay addresses Hexokinase HKDC1 (Homo sapiens, UniProt Q2TB90). In words: activation of HKDC1 glucose phosphorylation – biochemical, W721R variant, dose response (AID 504730). It counts as functional.
In assay [3] the target is DNA dC->dU-editing enzyme APOBEC-3G (Homo sapiens, UniProt Q9HC16). In words: Dose Response confirmation of small molecule APOBEC3G DNA Deaminase Inhibitors via a fluorescence-based single-stranded DNA deaminase assay. [Related pubchem assays (depositor defined):AID493012, AID493028]. It counts as functional.
A further assay addresses Hexokinase-1 (Homo sapiens, UniProt P19367). In words: HK1 enzyme activation by HKDC1 hits – biochemical, selectivity assay for HKDC1 activator project, dose response (AID 504762). It counts as functional.
For a further assay, the target named is Genome polyprotein (dengue virus type 2, UniProt P29990). In words: flavivirus cap methylation enzyme inhibition – biochemical, confirmation dose response, primary screen (AID 588689). It counts as functional.
Assay [4] is described as follows: HGIII-sPLA2 enzyme inhibition potency – biochemical, QFRET, IC50, dose response (AID 743457).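 Further: green fluorescence rise as the enzyme cleaves BODIPY PC-A2 in liposomes.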
Assay [5] has as its target Dual specificity tyrosine-phosphorylation-regulated kinase 1A (Rattus norvegicus, UniProt Q63470). It counts as biochemical, Homo sapiens.
The nature of assay [6]: NIH-3T3 fibroblast cytotoxicity, dose response, cytotoxicity control, cell-based, fluorescence, Alamar Blue, secondary assay (AID 2327).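 Further: NIH-3T3 mouse fibroblasts cultured with fluconazole at 8 µg/mL.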 It counts as functional. (In general: Alamar Blue is a resazurin reagent that responds to reducing activity.)
A short description of assay [7]: fluconazole-exposed Candida albicans growth modulators – fluorescence, retest, confirmation (AID 2467). It counts as functional, cell-based.
The target of assay [8] is Serine/threonine-protein phosphatase (Candida dubliniensis (strain CD36 / CBS 7987 / NCPF 3949 / NRRLY-17841) (Yeast), UniProt B9W6M3). In words: blockers of CaCl2-induced CDRE-lacZ signaling – S. cerevisiae, luminescence, secondary, dose response (AID 2388).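 Further: yeast reporter cells carrying a calcineurin-responsive lacZ construct stimulated with calcium chloride; luminescent beta-galactosidase reporter signal in whole cells rather than isolated phosphatase activity; potency for inhibition where a drop in reporter signal means calcineurin blockade.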 It counts as functional, cell-based.
The target in assay [9] is ATP-dependent molecular chaperone HSP82 (Candida albicans (strain WO-1) (Yeast), UniProt C4YTQ8). In words: steroid-induced GRE reporter decrease in yeast – S. cerevisiae, luminescence, Hsp90 inhibitor project, dose response (AID 2400).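 Further: beta-galactosidase luminescence from glucocorticoid response element reporter as proxy for Hsp90 function; inhibitor potency where signal loss means Hsp90 inhibition.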 It counts as functional, cell-based.
The nature of assay [10]: viability of PTEN-deleted HCT116 cells – cell-based, HCT116 PTEN knockout, dose response (AID 1047).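 Further: HCT116 colon tumor cells with PTEN knocked out; cells exposed to compound for 60 hours before readout; potency for loss of cell viability measured by luminescence.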 It counts as functional.
Assay [11] in a line: viability of HCT116 lacking mutant beta-catenin – cell-based, human colon tumor, dose response (AID 1045).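 Further: HCT116 colon tumor cells with beta catenin knocked out; cells exposed to compound for 60 hours.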 It counts as functional.
Assay [12] is described as follows: THP-1 cell cytotoxicity, dose response, cytotoxicity control for non-replicating M. tuberculosis project (AID 489025). It counts as functional.
The nature of assay [13]: HepG2 cell cytotoxicity, dose response, cytotoxicity control for non-replicating M. tuberculosis project (AID 489018). It counts as functional. Particulars: Mycobacterium tuberculosis.
Assay [14] can be described thus: Vero E6 cell cytotoxicity, dose response, cytotoxicity control for non-replicating M. tuberculosis project, secondary assay (AID 492998). It counts as functional, VeroE6. To be noted: Vero C1008.
For assay [15], the target named is FAD-linked sulfhydryl oxidase ALR (Homo sapiens, UniProt P55789). In words: ALR-catalysed DTT oxidation blockers – biochemical, H2O2 detection, luminescence, cherry-pick, dose response (AID 493248).
For assay [16], the target named is T1, Microphthalmia-associated transcription factor (Homo sapiens, UniProt O75030).
T1 sequence (O75030 whole entry): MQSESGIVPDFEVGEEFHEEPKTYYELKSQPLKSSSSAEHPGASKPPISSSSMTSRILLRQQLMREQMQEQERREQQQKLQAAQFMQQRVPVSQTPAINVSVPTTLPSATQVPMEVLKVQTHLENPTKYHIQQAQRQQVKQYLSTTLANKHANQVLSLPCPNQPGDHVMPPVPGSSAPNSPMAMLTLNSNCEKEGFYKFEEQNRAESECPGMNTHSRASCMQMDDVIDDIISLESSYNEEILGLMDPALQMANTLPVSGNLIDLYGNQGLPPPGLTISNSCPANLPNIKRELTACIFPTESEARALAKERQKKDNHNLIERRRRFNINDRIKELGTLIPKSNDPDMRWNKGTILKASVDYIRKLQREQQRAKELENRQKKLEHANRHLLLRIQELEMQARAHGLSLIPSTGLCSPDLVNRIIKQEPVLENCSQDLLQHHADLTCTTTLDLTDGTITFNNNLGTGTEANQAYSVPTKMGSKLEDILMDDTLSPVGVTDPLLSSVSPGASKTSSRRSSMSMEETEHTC
In words: reducers of TRPM1 reporter luminescence, concentration series – cell-based, SK-MEL-5, cherry-picked, set 3, MITF inhibitor project, dose response (AID 493073).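 Further: SK-MEL-5 melanoma cells with luciferase driven by the MITF target TRPM1 promoter.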 It counts as functional.

A short description of another assay: cells. It counts as functional.
The test system of the next assay is INS1. In words: INS-1E survival protection against cytokine death – cell-based, luminescence, retest, dose response (AID 449756).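 Further: cell death triggered by IL-1 beta plus TNF-alpha plus IFN-gamma mixture; protective hits raise ATP signal compared with cytokine alone wells.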 It counts as functional. To be noted: Rattus norvegicus.
Another assay deals with A-375. In words: proliferation inhibition in MITF-low A375 cells – cell-based, cherry-pick samples, set 2, counter-screen for MITF modulator project, dose response (AID 540335). It counts as functional. To be noted: Homo sapiens. A general note: The purpose of a counterscreen is to sort out artefacts and off-target activity.
Assay [17] is described as follows: reduction of Shn3 3'UTR-driven luciferase in osteoblasts – cell-based, Clone20 osteoblasts, firefly luciferase, cherry-picked, dose response (AID 624132).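 Further: firefly luciferase luminescence from reporter carrying the Shn3 3'UTR in osteoblasts.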 It counts as functional.
Assay [18] is described as follows: loss of viability in HepG2 cells – cell-based, CellTiter-Glo, cherry-picked, cytotoxicity control for Shn3 inhibitor project, dose response (AID 624134). It counts as functional. A general note: Cellular ATP, detected with luciferase, serves as a proxy for viable cell number.
A short description of assay [19]: non-specific 3'UTR reporter inhibition in Clone20-Shn3RL – cell-based, Renilla luciferase, cherry-picked, counter-screen for Shn3 inhibitor project, dose response (AID 624133). It counts as functional.
Another assay has as its target Paired box protein Pax-8 (Homo sapiens, UniProt Q06710). In words: PAX8 transcriptional activity inhibition in RMG-I – RMG-I cells, luciferase, cherry-pick, dose response (AID 687027).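 Further: luciferase reporter driven by Pax8 target thyroperoxidase promoter measured by SteadyGlo luminescence.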 It counts as functional, cell-based.

Paired box protein Pax-8, sequence (Q06710 whole entry): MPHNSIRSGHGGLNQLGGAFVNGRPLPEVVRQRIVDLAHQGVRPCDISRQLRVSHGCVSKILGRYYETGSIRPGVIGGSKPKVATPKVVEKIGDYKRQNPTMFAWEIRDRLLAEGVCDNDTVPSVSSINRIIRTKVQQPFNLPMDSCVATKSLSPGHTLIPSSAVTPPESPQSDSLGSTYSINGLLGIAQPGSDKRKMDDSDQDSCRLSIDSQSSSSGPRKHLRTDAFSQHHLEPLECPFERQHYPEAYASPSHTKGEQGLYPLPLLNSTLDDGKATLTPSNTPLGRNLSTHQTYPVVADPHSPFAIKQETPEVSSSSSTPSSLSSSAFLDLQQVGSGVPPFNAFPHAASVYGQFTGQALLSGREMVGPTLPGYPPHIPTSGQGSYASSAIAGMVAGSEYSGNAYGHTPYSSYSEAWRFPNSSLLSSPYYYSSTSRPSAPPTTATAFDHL
Hexokinase-1, sequence (P19367 whole entry): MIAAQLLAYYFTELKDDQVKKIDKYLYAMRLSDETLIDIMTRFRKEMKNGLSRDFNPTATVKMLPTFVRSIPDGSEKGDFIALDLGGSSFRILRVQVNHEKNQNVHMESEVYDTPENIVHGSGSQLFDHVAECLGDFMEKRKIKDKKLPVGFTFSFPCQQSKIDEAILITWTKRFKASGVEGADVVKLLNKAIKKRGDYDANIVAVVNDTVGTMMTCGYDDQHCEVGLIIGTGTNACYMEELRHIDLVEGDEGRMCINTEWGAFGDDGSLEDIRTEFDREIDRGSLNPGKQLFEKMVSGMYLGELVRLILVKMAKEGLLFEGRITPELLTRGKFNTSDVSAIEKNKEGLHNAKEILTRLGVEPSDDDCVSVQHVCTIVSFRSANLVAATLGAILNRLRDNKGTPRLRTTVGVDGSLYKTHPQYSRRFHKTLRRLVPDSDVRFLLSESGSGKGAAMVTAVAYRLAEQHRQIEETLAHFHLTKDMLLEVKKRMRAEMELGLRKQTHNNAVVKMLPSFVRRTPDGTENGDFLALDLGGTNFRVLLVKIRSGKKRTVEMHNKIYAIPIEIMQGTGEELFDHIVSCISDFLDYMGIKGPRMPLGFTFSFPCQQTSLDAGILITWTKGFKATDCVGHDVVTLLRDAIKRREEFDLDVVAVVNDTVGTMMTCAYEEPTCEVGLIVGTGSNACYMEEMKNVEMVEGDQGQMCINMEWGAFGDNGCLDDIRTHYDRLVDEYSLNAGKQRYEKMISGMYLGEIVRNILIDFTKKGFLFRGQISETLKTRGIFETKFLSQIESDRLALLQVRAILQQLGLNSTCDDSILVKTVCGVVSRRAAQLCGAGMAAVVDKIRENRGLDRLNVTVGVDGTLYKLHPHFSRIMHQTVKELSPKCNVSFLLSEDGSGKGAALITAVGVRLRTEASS
FAD-linked sulfhydryl oxidase ALR, sequence (P55789 whole entry): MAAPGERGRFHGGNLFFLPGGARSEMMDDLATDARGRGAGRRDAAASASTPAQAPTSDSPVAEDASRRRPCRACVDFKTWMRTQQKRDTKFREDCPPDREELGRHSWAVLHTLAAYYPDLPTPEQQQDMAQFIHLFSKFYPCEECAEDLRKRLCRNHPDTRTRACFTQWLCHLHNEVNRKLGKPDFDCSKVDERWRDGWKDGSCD
DNA dC->dU-editing enzyme APOBEC-3A, sequence (P31941 whole entry): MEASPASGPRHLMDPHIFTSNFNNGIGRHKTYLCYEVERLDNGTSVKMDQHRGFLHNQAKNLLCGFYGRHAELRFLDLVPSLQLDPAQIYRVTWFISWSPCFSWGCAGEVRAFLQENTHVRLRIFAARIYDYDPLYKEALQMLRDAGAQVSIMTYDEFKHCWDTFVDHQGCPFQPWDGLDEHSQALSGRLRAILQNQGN
Hexokinase HKDC1, sequence (Q2TB90 whole entry): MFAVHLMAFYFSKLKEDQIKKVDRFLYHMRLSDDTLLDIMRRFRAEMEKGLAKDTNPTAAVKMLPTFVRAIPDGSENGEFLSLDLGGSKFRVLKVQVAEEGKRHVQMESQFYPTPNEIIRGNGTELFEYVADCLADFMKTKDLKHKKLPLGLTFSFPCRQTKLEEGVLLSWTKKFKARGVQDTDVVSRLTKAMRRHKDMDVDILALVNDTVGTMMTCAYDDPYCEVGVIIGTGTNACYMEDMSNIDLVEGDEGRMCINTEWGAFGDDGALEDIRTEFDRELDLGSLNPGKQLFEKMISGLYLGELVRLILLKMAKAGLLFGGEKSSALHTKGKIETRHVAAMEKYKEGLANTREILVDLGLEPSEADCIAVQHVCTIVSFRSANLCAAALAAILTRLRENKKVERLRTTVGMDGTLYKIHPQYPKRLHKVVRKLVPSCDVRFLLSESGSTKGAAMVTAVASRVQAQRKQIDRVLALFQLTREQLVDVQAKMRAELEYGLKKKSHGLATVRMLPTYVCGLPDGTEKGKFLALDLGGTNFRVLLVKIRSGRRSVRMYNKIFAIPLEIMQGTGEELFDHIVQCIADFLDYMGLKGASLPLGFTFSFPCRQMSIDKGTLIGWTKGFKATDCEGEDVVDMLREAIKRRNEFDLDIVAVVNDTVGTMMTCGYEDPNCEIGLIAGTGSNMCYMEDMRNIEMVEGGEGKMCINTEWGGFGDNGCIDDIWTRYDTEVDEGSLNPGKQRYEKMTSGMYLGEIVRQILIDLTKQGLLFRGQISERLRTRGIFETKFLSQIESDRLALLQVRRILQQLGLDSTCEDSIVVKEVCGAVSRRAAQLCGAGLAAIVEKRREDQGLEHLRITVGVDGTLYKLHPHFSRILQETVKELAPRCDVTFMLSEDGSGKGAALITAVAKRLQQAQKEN
ATP-dependent molecular chaperone HSP82, sequence (C4YTQ8 whole entry): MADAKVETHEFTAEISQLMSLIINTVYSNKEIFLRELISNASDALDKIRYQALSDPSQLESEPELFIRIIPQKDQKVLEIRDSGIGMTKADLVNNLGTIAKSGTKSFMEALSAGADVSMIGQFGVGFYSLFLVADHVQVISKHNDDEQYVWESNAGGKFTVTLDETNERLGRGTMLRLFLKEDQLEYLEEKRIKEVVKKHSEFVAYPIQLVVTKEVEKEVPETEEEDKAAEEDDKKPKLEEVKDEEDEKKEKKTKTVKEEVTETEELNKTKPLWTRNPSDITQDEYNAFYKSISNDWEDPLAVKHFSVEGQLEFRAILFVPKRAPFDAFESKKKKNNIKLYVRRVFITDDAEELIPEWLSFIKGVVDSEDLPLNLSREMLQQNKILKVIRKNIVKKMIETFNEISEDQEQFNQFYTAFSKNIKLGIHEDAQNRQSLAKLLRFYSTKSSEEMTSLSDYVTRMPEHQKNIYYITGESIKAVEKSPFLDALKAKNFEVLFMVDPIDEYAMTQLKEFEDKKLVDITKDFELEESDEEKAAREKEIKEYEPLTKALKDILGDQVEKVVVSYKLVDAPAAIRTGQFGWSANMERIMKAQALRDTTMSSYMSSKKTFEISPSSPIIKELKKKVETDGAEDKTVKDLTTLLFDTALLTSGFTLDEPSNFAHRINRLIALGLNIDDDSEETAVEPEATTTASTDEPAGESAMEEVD
Genome polyprotein, sequence (P29990 2492-3391 limits assumed): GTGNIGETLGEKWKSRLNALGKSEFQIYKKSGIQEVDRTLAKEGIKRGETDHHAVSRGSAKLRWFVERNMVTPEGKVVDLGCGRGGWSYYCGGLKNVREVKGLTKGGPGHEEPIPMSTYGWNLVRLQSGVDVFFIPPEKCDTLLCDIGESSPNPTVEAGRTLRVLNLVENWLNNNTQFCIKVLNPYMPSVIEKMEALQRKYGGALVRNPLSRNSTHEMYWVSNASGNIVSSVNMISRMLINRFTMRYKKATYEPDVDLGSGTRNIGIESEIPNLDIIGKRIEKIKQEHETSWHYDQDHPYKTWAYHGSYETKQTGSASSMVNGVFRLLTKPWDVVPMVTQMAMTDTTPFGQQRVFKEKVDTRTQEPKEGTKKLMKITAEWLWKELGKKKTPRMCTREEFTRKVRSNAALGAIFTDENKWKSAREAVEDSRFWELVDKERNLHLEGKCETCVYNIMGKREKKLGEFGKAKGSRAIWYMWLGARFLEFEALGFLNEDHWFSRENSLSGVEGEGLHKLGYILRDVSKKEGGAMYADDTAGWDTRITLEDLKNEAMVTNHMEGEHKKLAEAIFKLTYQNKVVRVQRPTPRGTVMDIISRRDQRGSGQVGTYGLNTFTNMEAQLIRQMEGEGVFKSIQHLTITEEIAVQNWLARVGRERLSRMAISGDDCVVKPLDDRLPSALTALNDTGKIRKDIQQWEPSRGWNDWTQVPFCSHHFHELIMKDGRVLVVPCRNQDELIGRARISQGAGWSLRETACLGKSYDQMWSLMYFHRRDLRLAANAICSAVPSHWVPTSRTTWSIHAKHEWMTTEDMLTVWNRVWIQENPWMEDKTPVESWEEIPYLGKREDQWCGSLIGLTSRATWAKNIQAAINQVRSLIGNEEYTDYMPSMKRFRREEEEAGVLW
Serine/threonine-protein phosphatase, sequence (B9W6M3 whole entry): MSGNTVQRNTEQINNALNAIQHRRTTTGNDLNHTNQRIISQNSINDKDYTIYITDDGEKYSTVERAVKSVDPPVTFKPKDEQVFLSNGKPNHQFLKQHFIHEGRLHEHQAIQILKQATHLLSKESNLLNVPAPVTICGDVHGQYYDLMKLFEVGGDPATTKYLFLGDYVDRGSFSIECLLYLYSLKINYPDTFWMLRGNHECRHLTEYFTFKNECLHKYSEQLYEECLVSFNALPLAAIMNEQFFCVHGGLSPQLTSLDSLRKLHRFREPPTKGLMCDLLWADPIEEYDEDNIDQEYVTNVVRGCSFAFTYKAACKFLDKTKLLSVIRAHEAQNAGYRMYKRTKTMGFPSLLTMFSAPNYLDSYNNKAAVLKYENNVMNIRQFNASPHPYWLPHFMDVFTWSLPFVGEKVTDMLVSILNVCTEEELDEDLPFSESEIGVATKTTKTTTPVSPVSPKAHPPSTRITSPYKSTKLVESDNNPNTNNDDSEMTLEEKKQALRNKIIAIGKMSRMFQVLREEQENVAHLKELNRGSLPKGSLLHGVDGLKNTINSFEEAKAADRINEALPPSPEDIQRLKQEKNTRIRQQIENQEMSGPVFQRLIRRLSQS

For the compound `COc1cc(N=c2ssnc2Cl)c(OC)cc1Cl`, the IC50 in assay [1] is > 100 µM (inactive); in assay [2] it was 68.8 µM (inactive); in assay [3], 8.83 µM (active); at Genome polyprotein, > 100 µM (active); in [4], 92.1 µM (inactive). The EC50 was 27.2 µM (inactive) at Hexokinase HKDC1 and 41.9 µM (inactive) on Hexokinase-1.
In the case of `Cc1nc2c(ccc3nc(NC(=O)Cc4ccccc4)sc32)s1`, the AC50 in assay [5] was 0.73 µM (active).
As to `O=C(Nc1cccc(-c2cn3ccccc3n2)c1)c1cccc(Cl)c1`, the 50% effective concentration (EC50) is 11 µM (active) in [6], 1.05 µM (active) in [7], > 180 µM (inactive) in assay [8] and > 160 µM (inactive) in [9].
On to `O=C(c1ccccc1)C(CN1CCCC1)c1ccccc1` (stereo not drawn), for which the EC50 in [6] was > 160 µM (inactive); in assay [7], 0.292 µM (active); in [10], 2.82 µM (active); in assay [11], 1.88 µM (active). Moreover, the values for the CC50 in assay [12], in assay [13] and in assay [14] were 9.86 µM (active), 14.7 µM (active) and 9.26 µM (active), respectively. Further, the AC50 in assay [15] is 3.73 µM (active); in assay [16], 5.33 µM (active); in the assay on INS1 it was 4.07 µM (active); with A-375, 25.2 µM (active); in assay [17], 10.7 µM (active); in [18], 17.4 µM (active). Further, the concentration at half-maximal activity (AC50) is 6.34 µM (active) in [19] and 4.88 µM (active) on Paired box protein Pax-8. Moreover, the 50% inhibitory concentration (IC50) in the assay “cells” was 8.41 µM (active).

For the origin of these results see ChEMBL document CHEMBL1201862, “PubChem BioAssay data set” (2004).
